33 compounds from US11186564B2, “Dual NAV1.2/5HT2a inhibitors for treating CNS disorders” (Sunovion Pharmaceuticals Inc., priority 2016, dated 2021) can be followed below.

The IC50 is the point on the concentration scale where inhibition reaches its midpoint.

Molecules are shown by their SMILES. Some results are limits rather than exact numbers.

T1 sequence (P28223 whole entry): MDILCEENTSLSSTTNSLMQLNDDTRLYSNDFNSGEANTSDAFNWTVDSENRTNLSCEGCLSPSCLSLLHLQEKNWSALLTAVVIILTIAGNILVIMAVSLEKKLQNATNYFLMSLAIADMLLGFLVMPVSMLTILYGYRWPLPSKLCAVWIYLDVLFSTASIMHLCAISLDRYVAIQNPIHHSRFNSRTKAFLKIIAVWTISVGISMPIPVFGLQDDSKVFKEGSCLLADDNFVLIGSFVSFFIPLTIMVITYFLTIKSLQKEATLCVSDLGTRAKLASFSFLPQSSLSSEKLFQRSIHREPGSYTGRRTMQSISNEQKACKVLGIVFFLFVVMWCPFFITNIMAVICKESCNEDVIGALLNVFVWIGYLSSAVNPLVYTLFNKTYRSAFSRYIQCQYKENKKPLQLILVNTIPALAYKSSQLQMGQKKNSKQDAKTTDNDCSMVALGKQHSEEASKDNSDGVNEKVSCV

One assay has as its target T1, recombinant human serotonin receptor 5-HT2A (Homo sapiens, UniProt P28223).
T1 construct: expressed in transfected cells; method B: loaded with Ca2+ dye
In words: 5-HT2A antagonist Ca2+ assay in CHO-K1 cells (method A aequorin luminescence / method B FLIPR fluorescence). In kind it is cell-based. The settings on record: 5HT2A IC50, μM, antagonist mode vs EC80 of reference agonist, method A or B. From the text:
The methods utilized to assess the inhibitory activity of compounds on recombinant human serotonin receptor 5-HT2A was based upon previously published approaches [Jerman J C, Brough S J, Gager T, Wood M, Coldwell M C, Smart D, Middlemiss D N. Pharmacological characterisation of human 5-HT2 receptor subtypes. European Journal of Pharmacology 2001 Feb. 23; 414(1):23-30; Le Poul E, Hisada S, Mizuguchi Y, Dupriez V J, Burgeon E, Detheux M. Adaptation of aequorin functional assay to high throughput screening. J Biomolecular Screening 2002 February; 7(1):57-65.] The 5-HT2A receptor signals through Gq-phospholipase signaling cascade, which leads to a transient increase in free intracellular […] concentration. Both 5-HT2A assay methods rely upon monitoring these changes in Ca^2+ concentration.
In method A [Le Poul E, Hisada S, Mizuguchi Y, Dupriez V J, Burgeon E, Detheux M. (2002)], CHO-K1 cells engineered to stably co-express both recombinant human 5-HT2A and mitochondrial apoaequorin are used. […] For agonist testing, 50 microliters of cell suspension is mixed with 50 microliters of a solution containing test compound or reference agonist in a 96-well standard geometry microtiter plate. The resulting emission of light was recorded using a Hamamatsu Functional Drug Screening System 6000 (FDSS 6000) luminometer. For antagonist testing, 100 microliters of the solution of reference agonist (to yield an agonist concentration, EC80, sufficient to cause the cells to generate an 80% maximal luminescence response in the absence of any antagonist) is injected into the mix of cells and test compound, 15 minutes after the first injection. The resulting emission of light is recorded using Hamamatsu FDSS 6000 luminometer. IC50 values are calculated (from compound concentration dependent inhibition of agonist-induced 5-HT2A-dependent light emission) by non-linear least squares regression of the data (percent inhibition) onto equation (1) above.
In method B [Jerman J C, Brough S J, Gager T, Wood M, Coldwell M C, Smart D, Middlemiss D N. (2001)], CHO-K1 cells which had been engineered to stably co-express recombinant human 5-HT2A are used in assay done similarly to method A. In method B, the cells are loaded with a fluorogenic Ca^2+ indicator dye by pre-incubation. Addition of the reference agonist serotonin causes a transient increase in fluorescence in a suspension of the loaded cells, which can be detected using the Molecular Devices fluorometric imaging plate reader (FLIPR), a high-throughput platform for 96-well cell-based assays. Addition of test compounds that are 5-HT2A antagonists, prior to the addition of the agonist (to yield an agonist concentration, EC80, sufficient to cause the cells to generate an 80% maximal fluorescence response in the absence of any antagonist), reduces the amount of fluorescence detected by the FLIPR upon agonist addition. IC50 values are calculated (from compound concentration dependent inhibition of agonist-induced 5-HT2A-dependent fluorescence) by non-linear least squares regression of the data (percent inhibition) onto equation (1) above.
For `O[C@@H](COC1CCCCC1)CN1[C@@H]2CC[C@H]1CN(c1ccc(F)cc1)C2` [Example 290, (R)-1-(cyclohexyloxy)-3-((1R,5S)-3-(4-fluorophenyl)-3,8-diazabicyclo[3.2.1]octan-8-yl)propan-2-ol], the IC50 is 0.002 µM.
The same measure, in the same setting: then `O[C@H](COC1CCCCC1)CN1[C@@H]2CC[C@H]1CN(c1ccc(F)cc1)C2` [Example 289, (S)-1-(cyclohexyloxy)-3-((1R,5S)-3-(4-fluorophenyl)-3,8-diazabicyclo[3.2.1]octan-8-yl)propan-2-ol], with 0.02 µM; and `OC(COC1CCCCC1)CN1CCC2(CC1)COc1ccccc12` (stereo not drawn) [Example 389, 1-(cyclohexyloxy)-3-(2H-spiro[benzofuran-3,4′-piperidin]-1′-yl)propan-2-ol], with 8.58 µM.

Staying with this assay, now noted: antagonist mode vs EC80 of reference agonist, method A or B, read-out: 5HT2A IC50.
Take `O[C@H](COC1CCCCC1)CN1CCC[C@H](Oc2ccc(F)cc2)C1` [Example 268, (S)-1-(cyclohexyloxy)-3-((S)-3-(4-fluorophenoxy)piperidin-1-yl)propan-2-ol]: the IC50 is 2.12 µM.
For the compound `O[C@H](CO[C@@H]1CCCc2ccccc21)CN1CCN(Cc2ccccc2)CC1` [Example 86, (S)-1-(4-benzylpiperazin-1-yl)-3-(((R)-1,2,3,4-tetrahydronaphthalen-1-yl)oxy)propan-2-ol], the IC50 was more than 16.7 µM.
As for `COc1ccc(O[C@H]2CCN(CCN3CCc4ccccc4C3=O)C2)cc1` [Example 28, (S)-2-(2-(3-(4-methoxyphenoxy)pyrrolidin-1-yl)ethyl)-3,4-dihydroisoquinolin-1(2H)-one], the IC50 worked out at 10 µM.
On the same count and under the same terms, then `Fc1ccc(O[C@H]2CCN(CC3CCc4cnccc43)C2)cc1` (stereo partly drawn) [Example 2, 5-(((S)-3-(4-fluorophenoxy)pyrrolidin-1-yl)methyl)-6,7-dihydro-5H-cyclopenta[c]pyridine], with 1.25 µM; and `COc1cccc(COC2CCN(CC3CCc4ccc(OC)cc43)CC2)c1` (stereo not drawn) [Example 245, 1-((6-methoxy-2,3-dihydro-1H-inden-1-yl)methyl)-4-((3-methoxybenzyl)oxy)piperidine], with 0.41 µM; and `OC1(CN2CCC[C@@H](Oc3ccc(F)cc3)C2)COCc2ccccc21` (stereo partly drawn) [Example 258, 4-(((R)-3-(4-fluorophenoxy)piperidin-1-yl)methyl)isochroman-4-ol], with 1.5 µM.
On to `Fc1ccc(OC2COCCN(CC3COc4ccccc43)C2)cc1` (stereo not drawn) [Example 278, 4-((2,3-dihydrobenzofuran-3-yl)methyl)-6-(4-fluorophenoxy)-1,4-oxazepane], for which the IC50 was more than 3.16 µM.
`c1ccc(CCN2C[C@@H]3C[C@H]2CN3c2ccccc2)cc1` [Example 305, (1S,4S)-2-phenethyl-5-phenyl-2,5-diazabicyclo[2.2.1]heptane]: the IC50 is more than 14.5 µM.
Regarding `O=C1c2ccccc2CCN1CCN1CCC(Oc2ccncc2)CC1` [Example 199, 2-(2-(4-(pyridin-4-yloxy)piperidin-1-yl)ethyl)-3,4-dihydroisoquinolin-1(2H)-one], the IC50 is more than 8.7 µM.
`Fc1ccc(OC2COCCN(CC3Cc4cccnc4C3)C2)cc1` (stereo not drawn) [Example 279, 4-((6,7-dihydro-5H-cyclopenta[b]pyridin-6-yl)methyl)-6-(4-fluorophenoxy)-1,4-oxazepane]: the IC50 is more than 10 µM.
As to `COc1ccccc1O[C@H]1CCN(CCN2CCc3ccccc3C2=O)[C@H]1C` [Example 19, 2-(2-((2S,3S)-3-(2-methoxyphenoxy)-2-methylpyrrolidin-1-yl)ethyl)-3,4-dihydroisoquinolin-1(2H)-one], the 50% inhibitory concentration (IC50) is 0.56 µM.
With `O[C@H](COC1CCCCC1)CN1C[C@@H]2C[C@H](C1)N(c1ccccc1)C2` [Example 333, (S)-1-(cyclohexyloxy)-3-((1S,5R)-6-phenyl-3,6-diazabicyclo[3.2.1]octan-3-yl)propan-2-ol], the half-maximal inhibitory concentration (IC50) was more than 16.7 µM.
The same measure, in the same setting: then `O[C@@H](COC1CCCCC1)CN1CCC[C@H](Oc2ccc(F)cc2)C1` [Example 269, (R)-1-(cyclohexyloxy)-3-((S)-3-(4-fluorophenoxy)piperidin-1-yl)propan-2-ol], with 2.17 µM; and `Fc1ccc(O[C@@H]2CCN(CC3CCc4cccnc43)C2)cc1` (stereo partly drawn) [Example 7, 7-(((R)-3-(4-fluorophenoxy)pyrrolidin-1-yl)methyl)-6,7-dihydro-5H-cyclopenta[b]pyridine], with 1.01 µM.
With `COc1ccc2c(c1)C(CN1CCC(Oc3cccc(C(N)=O)c3)CC1)CC2` (stereo not drawn) [Example 108, 3-((1-((6-methoxy-2,3-dihydro-1H-inden-1-yl)methyl)piperidin-4-yl)oxy)benzamide], the IC50 is 0.74 µM.
As for `Fc1ccc(O[C@H]2CCCN(CCC3CCOc4ccccc43)C2)cc1` (stereo partly drawn) [Example 263, (3S)-1-(2-(chroman-4-yl)ethyl)-3-(4-fluorophenoxy)piperidine], the IC50 is more than 12.9 µM.
On to `Fc1ccc(O[C@@H]2CCCN(CC3COCc4ccccc43)C2)cc1` (stereo partly drawn) [Example 260, (3R)-3-(4-fluorophenoxy)-1-(isochroman-4-ylmethyl)piperidine], for which the IC50 came to 1.81 µM.
On the same count and under the same terms, then `Fc1ccc(O[C@H]2CCN(CC3CCc4ncccc43)C2)cc1` (stereo partly drawn) [Example 4, 5-(((S)-3-(4-fluorophenoxy)pyrrolidin-1-yl)methyl)-6,7-dihydro-5H-cyclopenta[b]pyridine], with 1.45 µM.
`O[C@H](COC1CCCCC1)CN1CC[C@@H]2C[C@H]1CN2c1ccccc1` [Example 326, (S)-1-(cyclohexyloxy)-3-((1S,5R)-6-phenyl-2,6-diazabicyclo[3.2.1]octan-2-yl)propan-2-ol]: the half-inhibitory concentration (IC50) was more than 3.16 µM.
For `O=C1c2ccccc2CCN1CCN1CC[C@@H](Oc2cccnc2)C1` [Example 23, (R)-2-(2-(3-(pyridin-3-yloxy)pyrrolidin-1-yl)ethyl)-3,4-dihydroisoquinolin-1(2H)-one], the IC50 is more than 16.7 µM.
Turning to `O=C1c2ccccc2CCN1CCN1CC[C@H](Oc2cccnc2)C1` [Example 24, (S)-2-(2-(3-(pyridin-3-yloxy)pyrrolidin-1-yl)ethyl)-3,4-dihydroisoquinolin-1(2H)-one], the IC50 was more than 16.7 µM.
`N#Cc1ccc(OC2CCN(CC3Cc4cccnc4C3)CC2)cc1` (stereo not drawn) [Example 156, 4-((1-((6,7-dihydro-5H-cyclopenta[b]pyridin-6-yl)methyl)piperidin-4-yl)oxy) benzonitrile]: the IC50 is 2.01 µM.
On to `COc1cccc(O[C@H]2CCN(CC(O)CO[C@H]3CCc4ccccc43)C2)c1` (stereo partly drawn) [Example 39, 1-(((S)-2,3-dihydro-1H-inden-1-yl)oxy)-3-((S)-3-(3-methoxyphenoxy)pyrrolidin-1-yl)propan-2-ol], for which the half-inhibitory concentration (IC50) came out at 4.3 µM.
For the compound `COc1ccc2c(c1)C(CN1CCC(OCc3cccnc3)CC1)CC2` (stereo not drawn) [Example 246, 3-(((1-((6-methoxy-2,3-dihydro-1H-inden-1-yl)methyl)piperidin-4-yl)oxy)methyl)pyridine], the IC50 worked out at 0.98 µM.
Consider `COc1ccc2c(c1)[C@@H](CN1C[C@@H]3CC[C@H]1CN3c1ccccc1)CC2` (single isomer, unassigned) [Compound 311], for which the IC50 was found to be 0.01 µM.
On the same count and under the same terms, then `O=C1c2ccccc2CCN1CCN1CCC[C@H](Oc2ccc(F)cc2)C1` [Example 265, (S)-2-(2-(3-(4-fluorophenoxy)piperidin-1-yl)ethyl)-3,4-dihydroisoquinolin-1(2H)-one], with more than 13.1 µM; and `O=C1c2ccccc2CCN1CCN1CC[C@H](Oc2ccccn2)C1` [Example 16, (S)-2-(2-(3-(pyridin-2-yloxy)pyrrolidin-1-yl)ethyl)-3,4-dihydroisoquinolin-1(2H)-one], with 1.85 µM; and `c1ccc2c(c1)CCC1(CCN(CCO[C@@H]3CCc4ccccc43)CC1)O2` [Example 431, (R)-1′-(2-((2,3-dihydro-1H-inden-1-yl)oxy)ethyl)spiro[chromane-2,4′-piperidine]], with 0.71 µM.
`Fc1ccc(O[C@@H]2CCCN(CCC3CCOc4ccccc43)C2)cc1` (stereo partly drawn) [Example 262, (3R)-1-(2-(chroman-4-yl)ethyl)-3-(4-fluorophenoxy)piperidine]: the IC50 was 1.63 µM.
Same read-out and setting: then `COc1ccccc1CN1CCC2(CCN(c3ccccc3)C2)C1` (stereo not drawn) [Example 342, 2-(2-methoxybenzyl)-7-phenyl-2,7-diazaspiro[4.4]nonane], with 2.08 µM.
